{"source": "paper PMC8165021", "about": "(Bioorganic & medicinal chemistry letters, 2021)", "key": {"D3R [1]": {"target": "T1, D3R (Homo sapiens, UniProt P35462)", "T1 sequence (P35462 whole entry)": "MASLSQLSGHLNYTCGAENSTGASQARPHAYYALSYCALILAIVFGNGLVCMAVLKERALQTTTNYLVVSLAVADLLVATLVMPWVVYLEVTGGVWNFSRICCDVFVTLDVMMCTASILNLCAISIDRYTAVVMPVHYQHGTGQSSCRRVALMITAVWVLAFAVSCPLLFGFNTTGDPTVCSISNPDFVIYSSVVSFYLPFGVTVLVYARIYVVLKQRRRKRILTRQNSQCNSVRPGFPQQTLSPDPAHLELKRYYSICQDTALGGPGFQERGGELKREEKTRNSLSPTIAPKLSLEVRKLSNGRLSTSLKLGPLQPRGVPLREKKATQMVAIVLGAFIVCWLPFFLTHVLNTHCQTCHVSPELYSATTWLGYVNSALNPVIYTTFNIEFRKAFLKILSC", "assay": "Radioligand binding at D3R", "conditions": "for D3R selectivities versus the other dopamine receptors tested: versus D1R, D2R, D4R, D5R"}, "D3R [2]": {"target": "T1, D3R", "conditions": "flexible n-butyl linker compound from previous study; ref [19]; cited from earlier work"}}}
{"smiles": "COc1cc2c(cc1O)CN(Cc1ccccc1CNC(=O)c1cccc(C#N)c1)CC2", "note": "[5i]", "values": [{"measurement": "D3R selectivity versus D4R", "setting": "D3R [1]; ratio of Ki values", "value": "> 100", "unit": "fold"}]}
{"smiles": "COc1cc2c(cc1OC)CN(Cc1ccccc1CNC(=O)c1cccc(C#N)c1)CC2", "note": "[5s]", "values": [{"measurement": "D3R selectivities versus the other dopamine receptors tested", "setting": "D3R [1]", "value": "15- to 420 fold"}]}
{"smiles": "COc1cc2c(cc1OC)CN(Cc1ccccc1CNC(=O)c1ccc(C#N)cc1)CC2", "note": "[5t]", "values": [{"measurement": "D3R selectivities versus the other dopamine receptors tested", "setting": "D3R [1]", "value": "15- to 420 fold"}]}
{"smiles": "O=C(NCc1ccccc1CN1CCc2cc(O)c(O)cc2C1)c1cccc(Br)c1", "note": "[6a]", "values": [{"measurement": "D3R selectivity versus D1R, D2R and D4R", "setting": "D3R [1]", "value": "< 50", "unit": "fold"}]}
{"smiles": "COc1cc2c(cc1O)CN(CCCCNC(=O)c1ccc(C#N)cc1)CC2", "note": "[compound 1]", "values": [{"measurement": "selectivity for D3R over σ2R", "setting": "D3R [2]", "value": "good selectivity"}]}
